The source of these data is US5750504A, “Antimicrobial proteins” (Zeneca Agrochemicals, priority 1996, dated 1998).

Type in all cases: cell-based
For assay [1], the system named is Gloeosporium musarum. Put plainly: Antifungal activity assay (microspectrophotometry). The settings on record: for IC50: inoculum Sp, period of incubation in AFP-solution 40. How it is done: (§1) Antifungal activity was measured by microspectrophotometry as previously described (Broekaert, 1990, FEMS Microbiol Lett, 69:55-60). Routinely, tests were performed with 20 μl of a (filter-sterilized) test solution and 80 μl of a suspension of fungal spores (2×10^4 spores/ml) in half strength potato dextrose broth (1/2 PDB). […] Control microcultures contained 20 μl of sterile distilled water and 80 μl of the fungal spore suspension.
(§2) Unless otherwise stated the test organism was Fusarium culmorum (strain IMI 180420) and incubation was done at 25° C. for 48 hours. Percent growth inhibition is defined as 100 times the ratio of the corrected absorbance of the control microculture minus the corrected absorbance of the test microculture over the corrected absorbance at 595 nm of the control microculture. The corrected absorbance values equal the absorbance at 595 nm of the culture measured after 48 hours minus the absorbance at 595 nm measured after 30 min.
(§3) The antifungal potency of the purified proteins was assessed on different plant pathogenic fungi, using the assay described in Example 1. Growth of fungi, collection and harvest of fungal spores and preparation of mycelial fragments were done as previously described (Broekaert et al, 1990, FEMS Microbiol Lett, 69:55-60). Serial dilutions of the antifungal proteins were applied to the fungi, either using growth medium SMF- (the synthetic growth medium of Example 1), medium SMF+ (medium SMF- supplemented with 1 mM CaCl2 and 50 mM KCl), growth medium 1/2 PDB- (half strength potato dextrose broth as in Example 1) or growth medium 1/2 PDB+ (medium 1/2 PDB- supplemented with 1 mM CaCl2 and 50 mM Kcl). The percent growth inhibition was measured by microspectrophotometry. The concentration required for 50% growth inhibition after 48 h of incubation (IC50 value) was calculated from the dose-reponse curves.
(§4) The abbreviations used are: IC50 =concentration required for 50% growth inhibition determined as described in Example 1; ND=not determined; Sp=spores; PrSp=spores pregerminated in the medium for 24 hours; MF=mycelial fragments preincubated for 48 hours in the medium prior to addition of the proteins; BHR=broad host range; SF=saprophytic fungus; SMF-=synthetic growth medium as described in Example 1; SMF+=SMF- supplemented with 1 mM CaCl2 and 50 mM KCl; 1/2PDB-=half strength potato dextrose broth as described in Example 1; 1/2PDB+=1/2PDB- supplemented with 1 mM CaCl2 and 50 mM KCl.

The subject of assay [2] is Curvularia affinis. The assay can be described thus: Antifungal activity assay (microspectrophotometry). The settings on record: strain FAJ97, host Musa, inoculum Sp, period of incubation in AFP-solution 40. How it is done: as §1, §2, §3, §4
Assay [3] concerns Acremonium hyalinum. Put plainly: Antifungal activity assay (microspectrophotometry). The settings on record: strain FAJ98, host Musa, inoculum Sp, period of incubation in AFP-solution 64. How it is done:
as §1, §2, §3, §4

For assay [4], the system named is Glomerella cingulata. The assay can be described thus: Antifungal activity assay (microspectrophotometry). The settings on record: strain FAJ76, host Musa, inoculum Sp, period of incubation in AFP-solution 64. How it is done: as §1, §2, §3, §4
In assay [5] the test system is Alternaria brassicola. Put plainly: Antifungal activity assay (microspectrophotometry). The settings on record: strain MUCL20297, host Brassica, inoculum Sp, period of incubation in AFP-solution 48. How it is done:
as §1, §2, §3, §4

For assay [6], the system named is Staphylococcus aureus ATCC 25923. Put plainly: Antibacterial activity assay (microspectrophotometry). The settings on record: tested at 200 μg/ml. How it is done:
(§5) Antibacterial activity was measured microspectrophotometrically as follows. A bacterial suspension was prepared by inoculating soft nutrient agarose (tryptone, 10 g/l; Seaplaque agarose (FMC), 5 g/l). Aliquots (80 μl) of the bacterial suspension (10^5 colony forming units per ml) were added to filter-sterilized samples (20 μl) in flat-bottom 96-well microplates. The absorbance at 595 nm of the culture was measured with the aid of a microplate reader after 30 minutes and 24 hours of incubation at 28° C. Percent growth inhibition was calculated as described above for the antifungal activity assay.
(§6) The antibacterial activities of Ah-AMP1 and Hs-AFP1 were measured on four gram positive bacteria (Bacillus subtilis JHCC 553331; Micrococcus luteus ATCC 93411; Staphylococcus aureus ATCC 25923; Streptococcus feacolis ATCC 29212) and two gram negative bacteria (Eschericia coli HB101 and Proteus vulgaris JHCC 558711).

For assay [7], the system named is Eschericia coli HB101. Described as above. The settings on record: tested at 200 μg/ml. How it is done:
as §5, §6

For assay [8], the system named is Proteus vulgaris JHCC 558711. The assay is described as above. The settings on record: tested at 200 μg/ml. How it is done: as §5, §6
In assay [9] the test system is Streptococcus feacolis ATCC 29212. The assay is described as above. The settings on record: tested at 200 μg/ml. How it is done:
as §5, §6

In assay [10] the test system is Micrococcus luteus ATCC 93411. The assay is described as above. The settings on record: tested at 200 μg/ml. How it is done: as §5, §6

The term IC50 denotes the concentration that inhibits the measured activity by half. A low value points to inhibition by little substance.

For “Ah-AMP1: Aesculus hippocastanum antimicrobial protein 1; 5 kDa polypeptide purified from seeds, 50 amino acids, SEQ ID NO 2 (LCNERPSQTWSGNCGNTAHCDKQCQDWEKASHGACHKRENHWKCFCYFNC)”, the “reduction of activity in medium SMF- versus SMF+” value in [1] (on Gloeosporium musarum) was “more than ten-fold”. Further, the IC50 in assay [1] (strain FAJ86, host Muaa, medium SMF+) was 12.5 µg/mL; in assay [1] (strain FAJB6, host Musa, medium SMF-) it was < 0.75 µg/mL; in assay [2] (medium SMF+) it was 25 µg/mL; in assay [2] (medium SMF-), 0.75 µg/mL; in assay [3] (medium SMF+), 12.5 µg/mL; in assay [3] (medium SMF-), < 0.75 µg/mL. The 50% inhibitory concentration (IC50) was 12.5 µg/mL in assay [4] (medium SMF+), < 0.75 µg/mL in assay [4] (medium SMF-), 12 µg/mL in assay [5] (medium SMF+) and 1.5 µg/mL in assay [5] (medium SMF-).
“Hs-AFP1: Heuchera sanquinea antifungal protein 1; 5 kDa polypeptide purified from seeds, 54 amino acids, SEQ ID NO 1 (DGVKLCDVPSGTWSGHCGSSSKCSQQCKDREHFAYGGACHYQFPSVKCFCKRQC)”: the “inhibition of bacterial growth” value in [6], in [7], in assay [8], in assay [9] and in [10] was “did not inhibit the growth” throughout.
